Measured values: the NIST ThermoML archive (doi:10.1016/j.jct.2004.11.001)

Settings: Liquid; for speed of sound: non intrusive technique with two piezoelectric transducers based on the time of flight

[2H]C([2H])([2H])C(=O)C([2H])([2H])[2H] [(D6)-2-propanone]
Settings | mass density [kg/m3] | speed of sound [m/s]
288.2 K, 100 kPa | – | 1110.6
288.2 K, 5020 kPa | – | 1140.7
288.2 K, 10060 kPa | – | 1168.2
288.2 K, 20010 kPa | – | 1218.6
288.2 K, 30090 kPa | – | 1264.4
288.2 K, 40050 kPa | – | 1302.9
288.2 K, 49940 kPa | – | 1345.4
288.2 K, 60000 kPa | – | 1382.2
288.2 K, 70020 kPa | – | 1417.2
288.2 K, 80060 kPa | – | 1450.1
288.2 K, 90030 kPa | – | 1481.9
288.2 K, 100110 kPa | – | 1512.5
288.2 K, 110100 kPa | – | 1540.4
288.2 K, 120100 kPa | – | 1568.3
288.2 K, 130120 kPa | – | 1595.5
288.2 K, 140000 kPa | – | 1620.6
288.2 K, 150150 kPa | – | 1640.3
288.2 K, 160030 kPa | – | 1664
298.15 K, 100 kPa | 868 | –
298.15 K, 5000 kPa | 873.51 | –
298.15 K, 9920 kPa | 878.81 | –
298.15 K, 14840 kPa | 883.83 | –
298.15 K, 19760 kPa | 888.58 | –
298.15 K, 24670 kPa | 893.11 | –
298.15 K, 29590 kPa | 897.46 | –
298.15 K, 34510 kPa | 901.62 | –
298.15 K, 39430 kPa | 905.63 | –
298.15 K, 44340 kPa | 909.51 | –
298.15 K, 49260 kPa | 913.26 | –
298.15 K, 54180 kPa | 916.86 | –
298.15 K, 59100 kPa | 920.33 | –
298.25 K, 100 kPa | – | 1071.6
298.25 K, 5080 kPa | – | 1103.4
298.25 K, 10170 kPa | – | 1131.8
298.25 K, 20270 kPa | – | 1183.7
298.25 K, 30000 kPa | – | 1229.6
298.25 K, 40010 kPa | – | 1272.1
298.25 K, 50020 kPa | – | 1312
298.25 K, 60450 kPa | – | 1350.7
298.25 K, 70020 kPa | – | 1383.8
298.25 K, 80010 kPa | – | 1416.9
298.25 K, 90200 kPa | – | 1443.5
298.25 K, 100040 kPa | – | 1478.7
298.25 K, 110070 kPa | – | 1507.6
298.25 K, 120040 kPa | – | 1535.4
298.25 K, 130020 kPa | – | 1561.1
298.25 K, 140020 kPa | – | 1586.5
298.25 K, 150120 kPa | – | 1611.2
298.25 K, 159970 kPa | – | 1634.8
303.16 K, 100 kPa | 861.61 | –
303.16 K, 5000 kPa | 867.3 | –
303.16 K, 9920 kPa | 872.78 | –
303.16 K, 14840 kPa | 877.94 | –
303.16 K, 19760 kPa | 882.84 | –
303.16 K, 24670 kPa | 887.5 | –
303.16 K, 29590 kPa | 891.96 | –
303.16 K, 34510 kPa | 896.23 | –
303.16 K, 39430 kPa | 900.35 | –
303.16 K, 44340 kPa | 904.3 | –
303.16 K, 49260 kPa | 908.1 | –
303.16 K, 54180 kPa | 911.79 | –
303.16 K, 59100 kPa | 915.34 | –
308.2 K, 100 kPa | 855.39 | –
308.2 K, 5000 kPa | 861.42 | –
308.2 K, 9920 kPa | 867.11 | –
308.2 K, 14840 kPa | 872.49 | –
308.2 K, 19760 kPa | 877.58 | –
308.2 K, 24670 kPa | 882.42 | –
308.2 K, 29590 kPa | 887.02 | –
308.2 K, 34510 kPa | 891.38 | –
308.2 K, 39430 kPa | 895.65 | –
308.2 K, 44340 kPa | 899.72 | –
308.2 K, 49260 kPa | 903.62 | –
308.2 K, 54180 kPa | 907.33 | –
308.2 K, 59100 kPa | 910.94 | –
308.22 K, 100 kPa | – | 1033.3
308.22 K, 5040 kPa | – | 1063.2
308.22 K, 10000 kPa | – | 1093.5
308.22 K, 20090 kPa | – | 1147.9
308.22 K, 29990 kPa | – | 1196.3
308.22 K, 40040 kPa | – | 1240.8
308.22 K, 50090 kPa | – | 1281.7
308.22 K, 60060 kPa | – | 1319.5
308.22 K, 70070 kPa | – | 1355
308.22 K, 80090 kPa | – | 1388.6
308.22 K, 89970 kPa | – | 1420.3
308.22 K, 100070 kPa | – | 1450.8
308.22 K, 110070 kPa | – | 1479.7
308.22 K, 120060 kPa | – | 1507.5
308.22 K, 130120 kPa | – | 1534.3
308.22 K, 140080 kPa | – | 1559.4
308.22 K, 150120 kPa | – | 1584
308.22 K, 160000 kPa | – | 1607.2
313.21 K, 100 kPa | 848.68 | –
313.21 K, 5000 kPa | 855 | –
313.21 K, 9920 kPa | 860.92 | –
313.21 K, 14840 kPa | 866.48 | –
313.21 K, 19760 kPa | 871.75 | –
313.21 K, 24670 kPa | 876.72 | –
313.21 K, 29590 kPa | 881.49 | –
313.21 K, 34510 kPa | 886.02 | –
313.21 K, 39430 kPa | 890.35 | –
313.21 K, 44340 kPa | 894.51 | –
313.21 K, 49260 kPa | 898.52 | –
313.21 K, 54180 kPa | 902.37 | –
313.21 K, 59100 kPa | 906.07 | –
318.11 K, 100 kPa | 842.15 | –
318.11 K, 5000 kPa | 848.68 | –
318.11 K, 9920 kPa | 854.81 | –
318.11 K, 14840 kPa | 860.56 | –
318.11 K, 19760 kPa | 865.99 | –
318.11 K, 24670 kPa | 871.14 | –
318.11 K, 29590 kPa | 876.06 | –
318.11 K, 34510 kPa | 880.71 | –
318.11 K, 39430 kPa | 885.18 | –
318.11 K, 44340 kPa | 889.44 | –
318.11 K, 49260 kPa | 893.55 | –
318.11 K, 54180 kPa | 897.49 | –
318.11 K, 59100 kPa | 901.28 | –
318.22 K, 100 kPa | – | 991.2
318.22 K, 4980 kPa | – | 1022.9
318.22 K, 10070 kPa | – | 1053.8
318.22 K, 19990 kPa | – | 1109.8
318.22 K, 30040 kPa | – | 1161.1
318.22 K, 40070 kPa | – | 1207.9
318.22 K, 50060 kPa | – | 1250.3
318.22 K, 60010 kPa | – | 1289.3
318.22 K, 70120 kPa | – | 1326.3
318.22 K, 80030 kPa | – | 1360.3
318.22 K, 90090 kPa | – | 1393
318.22 K, 100300 kPa | – | 1424.8
318.22 K, 110120 kPa | – | 1453.2
318.22 K, 120030 kPa | – | 1481
318.22 K, 129970 kPa | – | 1507.9
318.22 K, 140110 kPa | – | 1534.2
318.22 K, 150060 kPa | – | 1558.7
318.22 K, 160060 kPa | – | 1582.6
323.12 K, 100 kPa | 835.37 | –
323.12 K, 5000 kPa | 842.13 | –
323.12 K, 9920 kPa | 848.49 | –
323.12 K, 14840 kPa | 854.44 | –
323.12 K, 19760 kPa | 860.07 | –
323.12 K, 24670 kPa | 865.35 | –
323.12 K, 29590 kPa | 870.38 | –
323.12 K, 34510 kPa | 875.18 | –
323.12 K, 39430 kPa | 879.78 | –
323.12 K, 44340 kPa | 884.16 | –
323.12 K, 49260 kPa | 888.38 | –
323.12 K, 54180 kPa | 892.45 | –
323.12 K, 59100 kPa | 896.36 | –
328 K, 100 kPa | 828.68 | –
328 K, 5000 kPa | 835.72 | –
328 K, 9920 kPa | 842.33 | –
328 K, 14840 kPa | 848.48 | –
328 K, 19760 kPa | 854.24 | –
328 K, 24670 kPa | 859.71 | –
328 K, 29590 kPa | 864.88 | –
328 K, 34510 kPa | 869.82 | –
328 K, 39430 kPa | 874.55 | –
328 K, 44340 kPa | 879.05 | –
328 K, 49260 kPa | 883.39 | –
328 K, 54180 kPa | 887.57 | –
328 K, 59100 kPa | 891.6 | –
328.68 K, 100 kPa | – | 941.9
328.68 K, 5090 kPa | – | 977.6
328.68 K, 10030 kPa | – | 1009.5
328.68 K, 20070 kPa | – | 1068.8
328.68 K, 30010 kPa | – | 1121.9
328.68 K, 40010 kPa | – | 1171.1
328.68 K, 50070 kPa | – | 1215.9
328.68 K, 60000 kPa | – | 1256.7
328.68 K, 70030 kPa | – | 1294.8
328.68 K, 80090 kPa | – | 1330.4
328.68 K, 90100 kPa | – | 1364
328.68 K, 100060 kPa | – | 1396.1
328.68 K, 110140 kPa | – | 1426.4
328.68 K, 120100 kPa | – | 1454.7
328.68 K, 130000 kPa | – | 1481.9
328.68 K, 140020 kPa | – | 1508.4
328.68 K, 150040 kPa | – | 1533.8
328.68 K, 160100 kPa | – | 1557.9
332.91 K, 5000 kPa | 829.26 | –
332.91 K, 9920 kPa | 836.08 | –
332.91 K, 14840 kPa | 842.42 | –
332.91 K, 19760 kPa | 848.36 | –
332.91 K, 24670 kPa | 853.96 | –
332.91 K, 29590 kPa | 859.28 | –
332.91 K, 34510 kPa | 864.37 | –
332.91 K, 39430 kPa | 869.21 | –
332.91 K, 44340 kPa | 873.86 | –
332.91 K, 49260 kPa | 878.33 | –
332.91 K, 54180 kPa | 882.64 | –
332.91 K, 59100 kPa | 886.8 | –
338.72 K, 100 kPa | – | 888.6
338.72 K, 5050 kPa | – | 927.2
338.72 K, 10020 kPa | – | 962.5
338.72 K, 20030 kPa | – | 1025.1
338.72 K, 30050 kPa | – | 1081.4
338.72 K, 40010 kPa | – | 1132.6
338.72 K, 49990 kPa | – | 1179.8
338.72 K, 60050 kPa | – | 1223.2
338.72 K, 70040 kPa | – | 1262.8
338.72 K, 79970 kPa | – | 1299.3
338.72 K, 90070 kPa | – | 1334.7
338.72 K, 100040 kPa | – | 1367.5
338.72 K, 110020 kPa | – | 1398.5
338.72 K, 119960 kPa | – | 1428.5
338.72 K, 130000 kPa | – | 1456.6
338.72 K, 140080 kPa | – | 1484.3
338.72 K, 150050 kPa | – | 1510.5
338.72 K, 159910 kPa | – | 1535.5
